Patent US20100267561A1, “HERBICIDAL PYRIDAZINONE DERIVATIVES” (priority 2007, published 2010)

How the values were obtained:
Type in all cases: in vivo
[1] = tested on: winter barley (Hordeum vulgare); experiment: Test B postemergence plant response; settings: Postemergence
Summary of the method: (§1)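 Compounds applied after emergence to 2–18 cm plants; response read visually 13–15 days later on 0 (none) to 100 (complete control); a dash marks no result.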

[2] = tested on: chickweed (Stellaria media); experiment: Test B postemergence plant response; settings: Postemergence
Summary of the method: as §1

[3] = tested on: windgrass (Apera spica-venti); experiment: Test B postemergence plant response; settings: Postemergence
Summary of the method: as §1

[4] = tested on: eastern black (E.B.) nightshade (Solanum ptycanthum); experiment: Test B pre-/postemergence plant response; settings: Preemergence, scale 0 to 100
Summary of the method: (§2)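 Preemergence and postemergence (plants 2-18 cm, 1- to 4-leaf stage) applications used test chemicals in a non-phytotoxic solvent with surfactant. Plants were held in a greenhouse 13 to 15 days, then rated visually against controls on a 0-100 scale (0 no effect, 100 complete control).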

[5] = tested on: surinam grass (Brachiaria decumbens); experiment: Test B pre-/postemergence plant response
Summary of the method: as §2

[6] = tested on: Italian ryegrass (Lolium multiflorum); experiment: Test B pre-/postemergence plant response
Summary of the method: as §2

[7] = tested on: green foxtail (Setaria viridis); experiment: Test B pre-/postemergence plant response
Summary of the method: as §2

[8] = tested on: goosegrass (Eleusine indica); experiment: Test B pre-/postemergence plant response
Summary of the method: as §2

[9] = tested on: wheat (Triticum aestivum); experiment: Test B pre-/postemergence plant response
Summary of the method: as §2

[10] = tested on: large crabgrass (Digitaria sanguinalis); experiment: Test B pre-/postemergence plant response
Summary of the method: as §2

[11] = tested on: cocklebur (Xanthium strumarium); experiment: Test B pre-/postemergence plant response
Summary of the method: as §2

[12] = tested on: johnsongrass (Sorghum halepense); experiment: Test B pre-/postemergence plant response
Summary of the method: as §2

[13] = tested on: morningglory (Ipomoea coccinea); experiment: Test B pre-/postemergence plant response
Summary of the method: as §2

soybean (Glycine max) = experiment: Test B pre-/postemergence plant response
Summary of the method: as §2

[14] = tested on: bermudagrass (Cynodon dactylon); experiment: Test B pre-/postemergence plant response
Summary of the method: as §2

[15] = 31 g ai/ha, scale 0 to 100, 0 no effect, 100 complete control
[16] = Postemergence, 31 g ai/ha, scale 0 to 100, 0 no effect, 100 complete control
[17] = Postemergence, 62 g ai/ha, scale 0 to 100
[18] = Postemergence, 125 g ai/ha, scale 0 to 100
[19] = Postemergence, 250 g ai/ha, scale 0 to 100
[20] = Preemergence, 31 g ai/ha, 0 to 100 scale, 0 no effect, 100 complete control
[21] = Preemergence, 62 g ai/ha, scale 0 to 100
[22] = Preemergence, 125 g ai/ha, scale 0 to 100
[23] = Preemergence, 250 g ai/ha, scale 0 to 100

In the case of `Cc1cc(-c2ccc(Br)cc2)nn1-c1c(OC(=O)C2CC2)cnn(C)c1=O` [Compound 5], the “Plant response rating, Barley” value [1, 15] is reported as 30, the “Plant response rating, Barley” value ([1]; 62 g ai/ha, scale 0 to 100) is reported as 90 and the “Plant response rating, Barley” value ([1]; 125 g ai/ha, scale 0 to 100) is reported as 95. For the same compound, the “Plant response rating, Barley” value ([1]; 250 g ai/ha, scale 0 to 100) was 95, the “Plant response rating, Chickweed” value [2, 15] was 0 and the “Plant response rating, Chickweed” value ([2]; 62 g ai/ha, scale 0 to 100) was 0. For the same compound, the “Plant response rating, Chickweed” value ([2]; 125 g ai/ha, scale 0 to 100) was 0, the “Plant response rating, Chickweed” value ([2]; 250 g ai/ha, scale 0 to 100) was 0 and the “Plant response rating, Windgrass” value [3, 15] was 95. The “Plant response rating, Windgrass” value ([3]; 62 g ai/ha, scale 0 to 100) was 100, the “Plant response rating, Windgrass” value ([3]; 125 g ai/ha, scale 0 to 100) was 100 and the “Plant response rating, Windgrass” value ([3]; 250 g ai/ha, scale 0 to 100) was 100. The “Plant response rating, Nightshade, E. B.” value ([4]; 62 g ai/ha) was 0, the “Plant response rating, Nightshade, E. B.” value ([4]; 250 g ai/ha) was 100 and the “Plant response rating, Surinam Grass” value [5, 16] was 100. The “Plant response rating, Surinam Grass” value [5, 17] was 100, the “Plant response rating, Surinam Grass” value [5, 18] was 100 and the “Plant response rating, Surinam Grass” value [5, 19] was 100. The “Plant response rating, Surinam Grass” value [5, 20] was 100, the “Plant response rating, Surinam Grass” value [5, 21] was 100 and the “Plant response rating, Surinam Grass” value [5, 22] was 100. For the same compound, the “Plant response rating, Surinam Grass” value [5, 23] was 100, the “Plant response rating, Ryegrass, Italian” value [6, 16] was 100 and the “Plant response rating, Ryegrass, Italian” value [6, 17] was 100. For the same compound, the “Plant response rating, Ryegrass, Italian” value [6, 18] was 100, the “Plant response rating, Ryegrass, Italian” value [6, 19] was 100 and the “Plant response rating, Ryegrass, Italian” value [6, 20] was 100. For the same compound, the “Plant response rating, Ryegrass, Italian” value [6, 21] was 100, the “Plant response rating, Ryegrass, Italian” value [6, 22] was 100 and the “Plant response rating, Ryegrass, Italian” value [6, 23] was 100. The “Plant response rating, Foxtail, Green” value [7, 16] was 95, the “Plant response rating, Foxtail, Green” value [7, 17] was 100 and the “Plant response rating, Foxtail, Green” value [7, 18] was 100. The “Plant response rating, Foxtail, Green” value [7, 19] was 100, the “Plant response rating, Foxtail, Green” value [7, 20] was 98 and the “Plant response rating, Foxtail, Green” value [7, 21] was 100. The “Plant response rating, Foxtail, Green” value [7, 22] was 100, the “Plant response rating, Foxtail, Green” value [7, 23] was 100 and the “Plant response rating, Goosegrass” value [8, 16] was 95. For the same compound, the “Plant response rating, Goosegrass” value [8, 17] was 95, the “Plant response rating, Goosegrass” value [8, 18] was 100 and the “Plant response rating, Goosegrass” value [8, 19] was 100. For the same compound, the “Plant response rating, Goosegrass” value [8, 20] was 75, the “Plant response rating, Goosegrass” value [8, 21] was 100 and the “Plant response rating, Goosegrass” value [8, 22] was 100. The “Plant response rating, Goosegrass” value [8, 23] was 100, the “Plant response rating, Wheat” value [9, 16] was 90 and the “Plant response rating, Wheat” value [9, 17] was 100. For the same compound, the “Plant response rating, Wheat” value [9, 18] was 100, the “Plant response rating, Wheat” value [9, 19] was 100 and the “Plant response rating, Wheat” value [9, 20] was 30. For the same compound, the “Plant response rating, Wheat” value [9, 21] was 70, the “Plant response rating, Wheat” value [9, 22] was 95 and the “Plant response rating, Wheat” value [9, 23] was 98. For the same compound, the “Plant response rating, Crabgrass, Large” value [10, 16] was 100, the “Plant response rating, Crabgrass, Large” value [10, 17] was 100 and the “Plant response rating, Crabgrass, Large” value [10, 18] was 100. The “Plant response rating, Crabgrass, Large” value [10, 19] was 100, the “Plant response rating, Crabgrass, Large” value [10, 20] was 100 and the “Plant response rating, Crabgrass, Large” value [10, 21] was 100. For the same compound, the “Plant response rating, Crabgrass, Large” value [10, 22] was 100, the “Plant response rating, Crabgrass, Large” value [10, 23] was 100 and the “Plant response rating, Cocklebur” value [11, 16] was 0. The “Plant response rating, Cocklebur” value [11, 17] was 0, the “Plant response rating, Cocklebur” value [11, 18] was 0 and the “Plant response rating, Cocklebur” value [11, 19] was 20. The “Plant response rating, Cocklebur” value [11, 20] was 0, the “Plant response rating, Cocklebur” value [11, 21] was 0 and the “Plant response rating, Cocklebur” value [11, 22] was 0. The “Plant response rating, Johnsongrass” value [12, 16] was 0, the “Plant response rating, Johnsongrass” value [12, 17] was 0 and the “Plant response rating, Johnsongrass” value [12, 18] was 85. The “Plant response rating, Johnsongrass” value [12, 19] was 90, the “Plant response rating, Johnsongrass” value [12, 20] was 0 and the “Plant response rating, Johnsongrass” value [12, 21] was 100. The “Plant response rating, Johnsongrass” value [12, 22] was 100, the “Plant response rating, Johnsongrass” value [12, 23] was 100 and the “Plant response rating, Morningglory” value [13, 16] was 0. The “Plant response rating, Morningglory” value [13, 17] was 0, the “Plant response rating, Morningglory” value [13, 18] was 0 and the “Plant response rating, Morningglory” value [13, 19] was 0. For the same compound, the “Plant response rating, Morningglory” value [13, 20] was 0, the “Plant response rating, Morningglory” value [13, 21] was 0 and the “Plant response rating, Morningglory” value [13, 22] was 0. The “Plant response rating, Morningglory” value [13, 23] was 0, the “Plant response rating, Soybean” value (soybean (Glycine max); [16]) was 0 and the “Plant response rating, Soybean” value (soybean (Glycine max); [17]) was 50. The “Plant response rating, Soybean” value (soybean (Glycine max); [18]) was 65, the “Plant response rating, Soybean” value (soybean (Glycine max); [19]) was 70 and the “Plant response rating, Soybean” value (soybean (Glycine max); [20]) was 0. The “Plant response rating, Soybean” value (soybean (Glycine max); [21]) was 0, the “Plant response rating, Soybean” value (soybean (Glycine max); [22]) was 0 and the “Bermudagrass plant response rating” value ([14]; 250 g ai/ha, preemergence, 0-100 scale) was 100. The “Plant response rating, Bermudagrass” value [14, 16] was 100, the “Plant response rating, Bermudagrass” value [14, 17] was 100 and the “Plant response rating, Bermudagrass” value [14, 18] was 100. For the same compound, the “Plant response rating, Bermudagrass” value [14, 19] was 100, the “Plant response rating, Bermudagrass” value [14, 20] was 98 and the “Plant response rating, Bermudagrass” value [14, 21] was 100. The “Plant response rating, Bermudagrass” value [14, 22] was 100.
